Test results as given in BindingDB's records for doi:10.1016/0014-2999(93)90488-4 (Maryland Psychiatric Research Center, 1993).

Assays:
D(4) dopamine receptor = target: T1, D(4) dopamine receptor (Homo sapiens, UniProt P21917)
T1 sequence (P21917 whole entry): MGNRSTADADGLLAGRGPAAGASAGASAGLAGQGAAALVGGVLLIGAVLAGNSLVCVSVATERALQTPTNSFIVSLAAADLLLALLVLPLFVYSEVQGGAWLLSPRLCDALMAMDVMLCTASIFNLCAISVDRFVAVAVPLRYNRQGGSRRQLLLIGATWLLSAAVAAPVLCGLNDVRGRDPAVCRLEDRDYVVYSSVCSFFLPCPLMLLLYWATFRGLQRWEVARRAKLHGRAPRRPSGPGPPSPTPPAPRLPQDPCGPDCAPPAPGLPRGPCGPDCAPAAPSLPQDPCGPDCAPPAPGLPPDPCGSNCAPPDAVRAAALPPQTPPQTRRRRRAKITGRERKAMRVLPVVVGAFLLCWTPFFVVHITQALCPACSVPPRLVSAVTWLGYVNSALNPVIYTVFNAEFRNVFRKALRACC

D(2) dopamine receptor = D(2) dopamine receptor (Homo sapiens, UniProt P14416)
D(2) dopamine receptor, sequence (P14416 whole entry): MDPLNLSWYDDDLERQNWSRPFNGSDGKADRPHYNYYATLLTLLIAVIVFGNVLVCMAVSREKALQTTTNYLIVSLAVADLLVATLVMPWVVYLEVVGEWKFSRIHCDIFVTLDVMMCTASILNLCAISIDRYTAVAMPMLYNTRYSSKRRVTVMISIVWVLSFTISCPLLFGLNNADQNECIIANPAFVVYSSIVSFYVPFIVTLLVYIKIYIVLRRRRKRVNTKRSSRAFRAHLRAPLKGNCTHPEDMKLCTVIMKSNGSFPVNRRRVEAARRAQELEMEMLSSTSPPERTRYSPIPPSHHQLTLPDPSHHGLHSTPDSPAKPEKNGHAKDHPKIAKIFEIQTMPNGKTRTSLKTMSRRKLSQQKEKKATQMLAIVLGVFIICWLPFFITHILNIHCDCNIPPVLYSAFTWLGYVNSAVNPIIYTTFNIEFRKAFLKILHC

| SMILES | Ki (D(4) dopamine receptor) | Ki (D(2) dopamine receptor) |
| --- | --- | --- |
| CCN(CC)C(=O)N[C@H]1C[C@@H]2c3cccc4[nH]cc(c34)C[C@H]2N(C)C1 | 5.2 nM | 0.7 nM |
| CCCN[C@@H]1CCc2c(OC)cccc2[C@@H]1C | 132 nM | 120 nM |
| CN1CCN(CCCN2c3ccccc3Sc3ccc(C(F)(F)F)cc32)CC1 | – | 1.1 nM |
| CCN1CCC[C@H]1CNC(=O)c1c(O)c(Cl)cc(Cl)c1OC [3,5-Dichloro-N-(1-ethyl-pyrrolidin-2-ylmethyl)-2-hydroxy-6-methoxy-benzamide (raclopride)] | 1340 nM | – |
| CSc1ccc2c(c1)N(CC[C@@H]1CCCCN1C)c1ccccc1S2 [10-[2-(1-Methyl-piperidin-2-yl)-ethyl]-2-methylsulfanyl-10H-phenothiazine (thioridazine)] | 22.9 nM | – |
| CN1CCN(C2=Nc3ccccc3Oc3ccc(Cl)cc32)CC1 [13-chloro-10-(4-methylpiperazin-1-yl)-2-oxa-9-azatricyclo[9.4.0.0^{3,8}]pentadeca-1(11),3,5,7,9,12,14-heptaene] | 29 nM | – |
| CC1CCN(CCCC(=O)c2ccc(F)cc2)CC1 [CAS_3575-80-2] | 139 nM | – |
| CCCN1CCCC(c2cccc(O)c2)C1 (configuration not stated) [CAS_85976-54-1] | 546 nM | – |
| CCCN(CCC)C1C=Cc2c(OC)cccc2C1C (configuration not stated) [CAS_5311190] | 66.5 nM | 29.4 nM |
| O=C(O)c1ccccc1C(=O)Nc1cccc2ccccc12 [NPA,(+)] | 120 nM | 291 nM |
| CN1C[C@@H](NC(=O)C(C)(C)C)CC2c3cccc4[nH]c(Cl)c(c34)C[C@H]21 (some centres not stated) [SDZ-208-912] | 3.5 nM | 0.9 nM |
| CCCOc1ccc2nc(NC(=O)OC)[nH]c2c1 [SMR000058208] | 152 nM | – |
